# Results reported in US9872873B2, “Process for preparing stable pharmaceutical compositions of compounds susceptible to hydrolysis” (Fresenius Kabi Oncology Limited, priority 2012, dated 2018).
# Assays:
# [1] = Solution stability of Decitabine bulk solution in Water:Acetonitrile 80:20% v/v at −5 ± 2° C.; type: physicochemical
# [2] = Freezing point of bulk solution of Decitabine using various solvents and buffers; type: physicochemical
# Source text: The advantages of using these non-aqueous solvent systems include: increased drug wetting or solubility, increased sublimation rates, increased pre-dried bulk solution or dried product stability, decreased reconstitution time, and enhancement of sterility assurance of the pre-dried bulk solution. A pre-requisite for such a solvent to be utilized efficiently for depression of freezing point of water would be to have satisfactory drug solubility in solvent system. […] Various solvents were evaluated for intended purpose e.g. Dimethylsulfoxide (1-30%), Ethanol (1-30%), Tertiary-butanol (1-30%), and their combinations were used in the range of 1-30% and thus were evaluated for their effect in decreasing the freezing point of bulk solution as summarized in Table VII. Although Ethanol decreased the freezing point of the drug solution and ensured drug solubility at low temperature, it was not suitable as a solvent for lyophilization as lyophilized cake could not be formed using this solvent system. Dimethyl sulphoxide is not suitable solvent for Lyophilization as it is difficult to remove during lyophilization.
# [3] = cited from earlier work
# [4] = Stability profile of Decitabine pre-lyophilized bulk solution at 25° C. in water; type: physicochemical
# Experimental: The manufacture of a freeze dried product necessitates that the product is usually first manufactured as a solution, filtered to sterilize, aseptically filled, and finally lyophilized to remove the solvents. All of these unit operations require that the product be held in the solution state for a defined period of time, at least for 4 hours. A batch of Decitabine bulk solution was prepared by dissolving the drug (5 mg/mL) and buffer (Potassium dihydrogen phosphate 6.8 mg/mL, sodium hydroxide 1.16 mg/mL) in water and at room temperature.
# [5] = Stability profile of Decitabine pre-lyophilized bulk solution at −1° C. in water; type: physicochemical
# [6] = Initial (5 minutes after drug dissolution)
compound,measurement,setting,value
"Nc1ncn([C@H]2C[C@H](O)[C@@H](CO)O2)c(=O)n1 [Decitabine, 5-aza-2′ deoxycytidine]",Related Substances: 5-Azacytosine,[1]; 4 hrs,0.02%
same,Related Substances: H-unk (Highest Unknown Impurity),[1]; 4 hrs,0.03%
same,Related Substances: SP4,[1]; 4 hrs,0.28%
same,Related Substances: SP6,[1]; 4 hrs,0.29%
same,Related Substances: Total,[1]; 4 hrs,0.67%
same,Related Substances: 5-Azacytosine,[1]; Initial,0.01%
same,Related Substances: H-unk (Highest Unknown Impurity),[1]; Initial,0.03%
same,Related Substances: SP4,[1]; Initial,0.04%
same,Related Substances: SP6,[1]; Initial,0.05%
same,Related Substances: Total,[1]; Initial,0.17%
same,Freezing Point of bulk solution,[2]; 5% DMSO + 10% Ethanol + 20% Tertiary-butanol + buffer,−8 to −10 °C
same,Freezing Point of bulk solution,[2]; 5% DMSO +10% Ethanol + buffer,−5 °C
same,Freezing Point of bulk solution,[2]; 5% DMSO + 15% Ethanol + buffer,−6 to −9 °C
same,Freezing Point of bulk solution,[2]; Acetonitrile 5%,−2 to −3 °C
same,Freezing Point of bulk solution,[2]; Acetonitrile 10%,−3 to −4 °C
same,Freezing Point of bulk solution,[2]; Acetonitrile 15%,−4 to −6 °C
same,Freezing Point of bulk solution,[2]; Acetonitrile 20%,−8 °C
same,Freezing Point of bulk solution,[2]; DMSO 1%,−0.5 °C
same,Freezing Point of bulk solution,[2]; DMSO 2%,−0.8 °C
same,Freezing Point of bulk solution,[2]; DMSO 5%,−1.6 °C
same,Freezing Point of bulk solution,[2]; DMSO 10%,−3.0 °C
same,Freezing Point of bulk solution,[2]; DMSO 15%,−5.5 °C
same,Freezing Point of bulk solution,[2]; DMSO 20%,−13.9 °C
same,Freezing Point of bulk solution,[2]; DMSO 30%,−16.0 °C
same,Freezing Point of bulk solution,[2]; Ethanol 1%,−0.5 °C
same,Freezing Point of bulk solution,[2]; Ethanol 2%,−0.7 °C
same,Freezing Point of bulk solution,[2]; Ethanol 5%,−2.0 °C
same,Freezing Point of bulk solution,[2]; Ethanol 10%,−2.5 °C
same,Freezing Point of bulk solution,[2]; Ethanol 15%,−6.1 °C
same,Freezing Point of bulk solution,[2]; Ethanol 20%,−13.8 °C
same,Freezing Point of bulk solution,[2]; Ethanol 30%,−14.3 °C
same,Freezing Point of bulk solution,[2]; Tertiary-butanol 1%,−0.1 °C
same,Freezing Point of bulk solution,[2]; Tertiary-butanol 2%,−1.0 °C
same,Freezing Point of bulk solution,[2]; Tertiary-butanol 5%,−2.5 °C
same,Freezing Point of bulk solution,[2]; Tertiary-butanol 10%,−4.3 °C
same,Freezing Point of bulk solution,[2]; Tertiary-butanol 15%,−6.0 °C
same,Freezing Point of bulk solution,[2]; Tertiary-butanol 20%,−9.3 °C
same,Freezing Point of bulk solution,[2]; Tertiary-butanol 30%,−12.9 °C
same,Freezing Point of bulk solution,[2]; n-butanol,Restricted Miscibility
same,Maximum storage time of diluted solution until administration,"[3]; prepared with cold (2° C.-8° C.) infusion fluids, stored at 2° C.-8° C.",≤ 7 h
same,Time of use after reconstitution without cold infusion fluids,[3]; reconstituted with Sterile Water for Injection,≤ 15 min
same,Related Substances: 5-Azacytosine,[4]; 2 h,0.05%
same,Related Substances: H-unk (Highest Unknown Impurity),[4]; 2 h,12.42%
same,Related Substances: Six member Decitabine,[4]; 2 h,0.34%
same,Related Substances: Total,[4]; 2 h,25.44%
same,Related Substances: α-Decitabine,[4]; 2 h,0.00%
same,Related Substances: 5-Azacytosine,[4]; 4 h,0.05%
same,Related Substances: H-unk (Highest Unknown Impurity),[4]; 4 h,14.14%
same,Related Substances: Six member Decitabine,[4]; 4 h,0.81%
same,Related Substances: Total,[4]; 4 h,31.46%
same,Related Substances: α-Decitabine,[4]; 4 h,0.00%
same,Related Substances: 5-Azacytosine,[4]; [6],0.00%
same,Related Substances: H-unk (Highest Unknown Impurity),[4]; [6],10.89%
same,Related Substances: Six member Decitabine,[4]; [6],0.05%
same,Related Substances: Total,[4]; [6],12.12%
same,Related Substances: α-Decitabine,[4]; [6],0.00%
same,Related Substances: 5-Azacytosine,[5]; 1 hr,0.03%
same,Related Substances: H-unk (Highest Unknown Impurity),[5]; 1 hr,0.05%
same,Related Substances: SP1,[5]; 1 hr,0.03%
same,Related Substances: SP2,[5]; 1 hr,0.01%
same,Related Substances: SP3,[5]; 1 hr,0.06%
same,Related Substances: SP4,[5]; 1 hr,0.85%
same,Related Substances: SP6,[5]; 1 hr,0.07%
same,Related Substances: Total,[5]; 1 hr,1.25%
same,Related Substances: α-Decitabine,[5]; 1 hr,0.02%
same,Related Substances: 5-Azacytosine,[5]; 2 hr,0.04%
same,Related Substances: H-unk (Highest Unknown Impurity),[5]; 2 hr,0.05%
same,Related Substances: SP1,[5]; 2 hr,0.03%
same,Related Substances: SP2,[5]; 2 hr,0.02%
same,Related Substances: SP3,[5]; 2 hr,0.05%
same,Related Substances: SP4,[5]; 2 hr,1.50%
same,Related Substances: SP6,[5]; 2 hr,0.22%
same,Related Substances: Total,[5]; 2 hr,2.06%
same,Related Substances: α-Decitabine,[5]; 2 hr,0.02%
same,Related Substances: 5-Azacytosine,[5]; 3 hr,0.03%
same,Related Substances: H-unk (Highest Unknown Impurity),[5]; 3 hr,0.05%
same,Related Substances: SP1,[5]; 3 hr,0.03%
same,Related Substances: SP2,[5]; 3 hr,0.02%
same,Related Substances: SP3,[5]; 3 hr,0.05%
same,Related Substances: SP4,[5]; 3 hr,2.13%
same,Related Substances: SP6,[5]; 3 hr,0.21%
same,Related Substances: Total,[5]; 3 hr,2.68%
same,Related Substances: α-Decitabine,[5]; 3 hr,0.02%
same,Related Substances: 5-Azacytosine,[5]; 4 hr,0.03%
same,Related Substances: H-unk (Highest Unknown Impurity),[5]; 4 hr,0.05%
same,Related Substances: SP1,[5]; 4 hr,0.03%
same,Related Substances: SP2,[5]; 4 hr,0.04%
same,Related Substances: SP3,[5]; 4 hr,0.05%
same,Related Substances: SP4,[5]; 4 hr,1.71%
same,Related Substances: SP6,[5]; 4 hr,0.95%
same,Related Substances: Total,[5]; 4 hr,3.07%
same,Related Substances: α-Decitabine,[5]; 4 hr,0.01%
same,Related Substances: 5-Azacytosine,[5]; Initial,0.03%
same,Related Substances: H-unk (Highest Unknown Impurity),[5]; Initial,0.05%
same,Related Substances: SP1,[5]; Initial,0.03%
same,Related Substances: SP2,[5]; Initial,0.01%
same,Related Substances: SP3,[5]; Initial,0.06%
same,Related Substances: SP4,[5]; Initial,0.35%
same,Related Substances: SP6,[5]; Initial,0.04%
same,Related Substances: Total,[5]; Initial,0.70%
